From PMC4228444 (BMC Complementary and Alternative Medicine, 2013)
pIC50: −log10 of the molar value. ≈ marks a conversion by molar mass, not a printed value. Where “and” joins values, the source holds several entries; their conditions need not be identical. Identical values can stand only once. Numbered stars: 1 amine (or outer) side, 2 acyl side, 3 side chain; on linkers, the order of the positions; unused ones are H or OH. Bridge positions count the residues as written; N and C are the ends. Square brackets hold non-standard residues; d marks the D form. Peptide text beside a SMILES is read from it. I, II: the chains in the order shown. Actinocin(9to1) = Cc1c2oc3c(C)ccc(C(=O)[*:1])c3nc-2c(C(=O)[*:2])c(N)c1=O; NMeV = CN[C@H](C(=O)O)C(C)C; Sar = CNCC(=O)O

Legend:
[1] = test system: Propionibacterium acnes (ATCC 11827); test: Antibacterial activity, broth microdilution MIC (INT colour change); assay type: cell-based; conditions: P. acnes, 72 h anaerobic; for MIC: Cutibacterium acnes, ATCC11827, 72 h
Protocol: The ethanol extract and compounds were tested against P. acnes by determining the minimum inhibitory concentration (MIC) values obtained by a microdilution method as previously described with few modifications. Briefly, the bacteria was cultured from a Kwik-Stick on nutrient agar and incubated at 37°C for 72 h under anaerobic conditions before the assay. The 72 h culture of the bacteria was dissolved in nutrient broth and the suspension was adjusted to 0.5 McFarland standard turbidity. […] In a sterile 96-well plate, 100 μl of samples from the stock solution consisting of the plant extract/isolated compounds (2 mg/ml in 10% dimethyl sulphoxide (DMSO)) and the positive control tetracycline (0.2 mg/ml) were diluted with broth. Twofold serial dilutions were made in broth over a range to give concentrations of 500–3.9 μg/ml and 50–0.3 and μg/ml for the plant extract/ isolated compounds and positive control tetracycline, respectively. The bacterial suspension (100 μl) was then added to the wells. The wells with 2.5% DMSO and bacterial suspension without samples served as the solvent and negative controls, respectively. The plates were incubated at 37°C for 72 h in an anaerobic environment.

[2] = In vitro cytotoxicity assay (XTT), U937; conditions: human
Protocol: (§1) The mouse melanocytes (B16-F10) cells were cultured in a complete Minimum Essential Eagle’s Medium (MEM) whereas the human U937 cells were cultured in Roswell Park Memorial Institute (RPMI) containing 10% fetal bovine serum (FBS) and 1% gentamycin. B16-F10 (10^5 cells per well) and U937 (10^6 cells per well) were seeded into a 96-well plate. After an overnight incubation at 37°C in 5% CO2 and a humidified atmosphere, the extract, compounds and the positive control (actinomycin D) were added to the cells. […] The highest concentration of positive control (0.05 μg/ml) was serially diluted to eight consecutive wells. The plate was then incubated at 37°C in 5% CO2, and a humidified atmosphere after which the toxic effects of the extracts were assayed using the XTT (sodium 3’-[1-(phenyl amino-carbonyl)-3,4-tetrazolium]-bis-[4-methoxy-6-nitrobenzene sulfonic acid hydrate) cytotoxicity assay. […] The optical densities of the wells were measured at 450 nm (690 nm reference wavelength) using BIOTEK Power-wave XS multi well reader (A.D.P., Weltevreden Park, South Africa). By referring to the control (medium with DMSO), the cell survival rate was assessed.

DPPH antioxidant assay = assay type: biochemical; conditions: for Antioxidant IC50 / pIC50: DPPH; for Antioxidant IC50: 550 nm; for pIC50: value in brackets; for Antioxidant Mg Vit C equivalents/g dry weight: IC50 vit C/IC50 sample × 1000
Protocol: Antioxidant activity of the ethanol extract of S. jambos and compounds was investigated using 1,2-diphenyl-1-picrylhydrazyl (DPPH) antioxidant assay. Following the procedures as described by DuToit et al. for each sample, a dilution series (8 dilutions) was prepared in a 96 well plate by adding distilled water as a dilution medium. Final concentration of the samples ranged from 100 to 0.7 μg/ml. Each concentration was tested in triplicate. Vitamin C was used as a positive control. […] The radical scavenging activity was measured in terms of the amount of antioxidants necessary to decrease the initial DPPH absorbance by 50% (IC50). The IC50 value of each sample was determined graphically by plotting the absorbance of DPPH as a function of the sample concentration in μg/ml. The IC50 is the amount of antioxidant necessary to decrease the initial DPPH absorbance by 50%. The results are expressed as the mg vitamin C equivalents/g dry weight and calculated as follows: […]

[3] = In vitro cytotoxicity assay (XTT), B16-F10; conditions: mouse
Protocol: as §1

TNF α = TNF α release from U937 cells stimulated with heat-killed P. acnes (ELISA); assay type: cell-based, human; conditions: for Inhibitory ratio (%) TNF α: 18 h; for Suppression of TNF α release (range stated jointly for IL 8 and TNF α): abstract summary
Protocol: (§2) Briefly, the log phase culture of P. acnes was harvested, washed three times with phosphate buffer saline (PBS), and incubated at 80°C for 30 min to kill the bacteria. The heat-killed bacteria were stored at 4°C until use. […] Pentoxifylline was used as a control. […] Cytokine standards were serially diluted to facilitate the construction of calibration curves necessary for determining protein concentration after treatment with test samples. The ratio (%) of inhibition of the cytokine release was calculated using the following equation: […] Where T represents the concentration of the cytokine in the culture supernatant with the test sample, and C represents the concentration of cytokine in the culture supernatant with the solvent.

P. acnes [4] = test: Transmission electron microscopy of treated P. acnes; assay type: cell-based, Propionibacterium acnes; conditions: 50 μg/ml, 72 h
Protocol: The TEM procedures followed the protocol of a previous publication. Briefly, bacteria was concentrated by centrifugation at 10 000 rpm for 1 min. The pellet was resuspended in nutrient broth to a final OD550 nm of 1. […] The bacterial suspension (5 ml) was mixed with plant extract and pure compound to a final concentration of 300 and 100 μg/ml for plant extract and 50 μg/ml for pure compound. Tetracycline (50 μg/ml) and DMSO (2.5%) were used as positive and solvent control, respectively. The pathogen was treated for 72 h; the control group consisted of only bacterial suspension in nutrient broth. Treated and untreated P. acnes cultures were centrifuged and fixed in 2.5% glutraldehyde in phosphate buffer at room temperature for 1 h. Samples were washed with phosphate buffer and postfixed in both 1% osmium tetraoxide and uranyl acetate. The cells were dehydrated in ethanol and embedded in quetol resin. Thin sections were prepared with a microtome and micrographs were taken using a JEOL JEM-2100 F field emission electron microscope.

P. acnes [5] = test system: P. acnes; set-up: method as in doi:10.1021/jf00030a036; conditions: cited from earlier work
IL 8 = IL 8 release from U937 cells stimulated with heat-killed P. acnes (ELISA); assay type: cell-based, human; conditions: for Inhibitory ratio (%) IL 8: 18 h; for Suppression of IL 8 release (range stated jointly for IL 8 and TNF α): abstract summary; for Inhibition of IL 8 in words: at the highest concentration tested
Protocol: as §2

U937 human macrophage = test: In vitro cytotoxicity assay (XTT), U937; conditions: U937 cells
Protocol: as §1

[6] = test system: B16-F10 mouse melanocytes; test: In vitro cytotoxicity assay (XTT), B16-F10; conditions: B16-F10 cells
Protocol: as §1

[7] = test system: vancomycin-resistant enterococci; set-up: method as in PMID 17541170; conditions: cited from earlier work
[8] = isolated from Anacardium occidentale; cited from earlier work
[9] = at the highest concentration tested

## O=C(O)c1cc(O)c(O)c(O)c1 [Gallic acid, gallic acid]
[1]; 37°C
  MIC: > 500 µg/mL
  Antibacterial MIC: Na (not active at the highest concentration tested (500 μg/ml))
[2]
  EC50: 28.4 µg/mL and 169 µM
DPPH antioxidant assay
  Antioxidant IC50: 0.8 µg/mL
  pIC50: 5.32
  Antioxidant Mg Vit C equivalents/g dry weight: 2444.9 Mg Vit C equivalents/g dry weight
[3]
  EC50: 2.2 µg/mL and 13.1 µM
TNF α; [9]
  Inhibition of TNF α in words: suppressed TNF α drastically

## O=C1O[C@H]([C@@H](O)CO)C(O)=C1O [vitamin C, reference compound]
DPPH antioxidant assay
  Antioxidant IC50: 1.9 µg/mL
  pIC50: 4.95

## CN(C)[C@@H]1C(O)=C(C(N)=O)C(=O)[C@@]2(O)C(O)=C3C(=O)c4c(O)cccc4[C@@](C)(O)[C@H]3C[C@@H]12 [tetracycline, reference compound]
[1]; 37°C
  MIC: 3.1 µg/mL
[1]; value in brackets
  MIC: 7 µM
P. acnes [4]
  TEM: cell injury to P. acnes: significant damages to the cells of P. acnes

## pentadecadienyl salicylic acid
P. acnes [5]
  MIC: 0.78 µg/mL

## CC(=O)CCCCn1c(=O)c2c(ncn2C)n(C)c1=O [Pentoxifylline, reference compound]
IL 8; final concentration 10 μg/ml
  Inhibitory ratio (%) IL 8: -0.16%
IL 8; final concentration 50 μg/ml
  Inhibitory ratio (%) IL 8: -5.0%
IL 8; final concentration 100 μg/ml
  Inhibitory ratio (%) IL 8: -1.3%
IL 8; pentoxifylline control
  Change in IL 8 concentration in words: no significant change
TNF α; at 100 and 50 μg/ml
  Inhibition of TNF α in words: Very high inhibition
TNF α; final concentration 10 μg/ml
  Inhibitory ratio (%) TNF α: 66.8%
TNF α; final concentration 50 μg/ml
  Inhibitory ratio (%) TNF α: 99.7%
TNF α; final concentration 100 μg/ml
  Inhibitory ratio (%) TNF α: 99.7%

## myricitrin
[1]; 37°C
  Antibacterial MIC: Na (not active at the highest concentration tested (500 μg/ml))
[1]; 37°C, listed as myricitrin
  Antibacterial MIC: > 500 µg/mL
DPPH antioxidant assay
  Antioxidant IC50: 1.8 µg/mL
  pIC50: 5.40
  Antioxidant Mg Vit C equivalents/g dry weight: 1081.0 Mg Vit C equivalents/g dry weight
IL 8
  Suppression of IL 8 release (range stated jointly for IL 8 and TNF α): 74 - 99%
  Inhibition of IL 8 in words: significant inhibition
IL 8; final concentration 10 μg/ml
  Inhibitory ratio (%) IL 8: 40.6%
IL 8; final concentration 50 μg/ml
  Inhibitory ratio (%) IL 8: 94.3%
IL 8; final concentration 100 μg/ml
  Inhibitory ratio (%) IL 8: 99.6%
TNF α
  Suppression of TNF α release (range stated jointly for IL 8 and TNF α): 74 - 99%
TNF α; [9]
  Inhibition of TNF α in words: significant inhibition
TNF α; final concentration 10 μg/ml
  Inhibitory ratio (%) TNF α: 32.8%
TNF α; final concentration 50 μg/ml
  Inhibitory ratio (%) TNF α: 99.7%
TNF α; final concentration 100 μg/ml
  Inhibitory ratio (%) TNF α: 99.7%

## O=c1c(O)c(-c2cc(O)c(O)c(O)c2)oc2cc(O)cc(O)c12 [Myricetin, myricetin]
[1]; 37°C
  MIC: > 500 µg/mL
  Antibacterial MIC: Na (not active at the highest concentration tested (500 μg/ml))
U937 human macrophage
  Toxicity in words: moderate toxicity
[2]; U937 human macrophage cells
  EC50: 19.3 µg/mL and 60 µM
DPPH antioxidant assay
  Antioxidant IC50: 0.9 µg/mL
  pIC50: 5.52
  Antioxidant Mg Vit C equivalents/g dry weight: 2105.0 Mg Vit C equivalents/g dry weight
IL 8
  Inhibition of IL 8 in words: low inhibition
IL 8; final concentration 3.1 μg/ml
  Inhibitory ratio (%) IL 8: -0.5%
IL 8; final concentration 6.2 μg/ml
  Inhibitory ratio (%) IL 8: 10%
IL 8; final concentration 12.5 μg/ml
  Inhibitory ratio (%) IL 8: 34%
[3]; B16-F10 mouse melanocyte cells
  EC50: 11.1 µg/mL and 35.1 µM
[6]
  Toxicity in words: significant toxicity
TNF α; [9]
  Inhibition of TNF α in words: moderately decreased
TNF α; final concentration 3.1 μg/ml
  Inhibitory ratio (%) TNF α: -4.8%
TNF α; final concentration 6.2 μg/ml
  Inhibitory ratio (%) TNF α: 27.1%
TNF α; final concentration 12.5 μg/ml
  Inhibitory ratio (%) TNF α: 44.1%

## C[C@H]1[C@H](C)CC[C@]2(C(=O)O)CC[C@]3(C)C(=CC[C@@H]4[C@@]5(C)CC[C@H](O)C(C)(C)[C@@H]5CC[C@]43C)[C@H]12 [Ursolic acid, ursolic acid]
[1]; 37°C
  MIC: > 500 µg/mL
  Antibacterial MIC: Na (not active at the highest concentration tested (500 μg/ml))
U937 human macrophage
  Toxicity in words: moderately toxic
[2]; U937 human macrophage cells
  EC50: 38 µg/mL and 83.2 µM
[7]
  MIC: 4 µg/mL (≈ 8.76 µM)
IL 8
  Suppression of IL 8 release (range stated jointly for IL 8 and TNF α): 74 - 99%
  Inhibition of IL 8 in words: significant inhibition
TNF α
  Suppression of TNF α release (range stated jointly for IL 8 and TNF α): 74 - 99%
TNF α; [9]
  Inhibition of TNF α in words: significant inhibition

## pentadecatrienyl salicylic acid
P. acnes [5]
  MIC: 0.78 µg/mL

## 6-pentadecenylsalicylic acid
[8]
  DPPH radical scavenging activity in words: did not exhibit notable DPPH radical scavenging activity

## pentadecenyl salicylic acid
P. acnes [5]
  MIC: 0.78 µg/mL

## CCCCCCCCCCCCCCCc1cccc(O)c1C(=O)O [pentadecyl salicylic acid]
P. acnes [5]
  MIC: 0.78 µg/mL (≈ 2.24 µM)

## CC(C)=CCC/C(C)=C/CC/C(C)=C/CC/C=C(\C)CC/C=C(\C)CCC=C(C)C [Squalene, squalene]
[1]; 37°C
  MIC: > 500 µg/mL
  Antibacterial MIC: Na (not active at the highest concentration tested (500 μg/ml))
[2]
  EC50: > 100 µg/mL
  viability at 100 μg/ml: 100%
DPPH antioxidant assay
  Antioxidant IC50: >100 µg/mL
[3]; B16-F10 melanocyte cells
  viability at 100 μg/ml: 100%
[3]; B16-F10 mouse melanocyte cells
  EC50: > 100 µg/mL

## Cc1c2oc3c(C)ccc(C(=O)N[C@@H]4C(=O)N[C@H](C(C)C)C(=O)N5CCC[C@H]5C(=O)N(C)CC(=O)N(C)[C@@H](C(C)C)C(=O)O[C@@H]4C)c3nc-2c(C(=O)N[C@@H]2C(=O)N[C@H](C(C)C)C(=O)N3CCC[C@H]3C(=O)N(C)CC(=O)N(C)[C@@H](C(C)C)C(=O)O[C@@H]2C)c(N)c1=O [actinomycin D, reference compound] (I: T[dV]P[Sar][NMeV] / II: T[dV]P[Sar][NMeV]; ester I:1-I:C, II:1-II:C; linker I:N-II:N via Actinocin(9to1))
[2]
  EC50: 0.0045 µg/mL (≈ 0.00358 µM)
[3]
  EC50: 0.0045 µg/mL (≈ 0.00358 µM)
